Experimental data from patent US20230365590A1, “BIPHENYL COMPOUND AS IMMUNOMODULATOR, PREPARATION METHOD THEREFOR AND APPLICATION THEREOF” (SHENZHEN CHIPSCREEN BIOSCIENCES CO., LTD., priority 2020, published 2023).
pEC50: −log10 of the molar value.

How the values were obtained:
[1] = Single-dosing pharmacokinetics test; type: in vivo, B-hPD-1/hPD-L1 female mice; settings: female, B-hPD-1/hPD-L1 (humanized), mouse, po; humanized mice, single dose of 100 mg/kg by gavage, plasma
Experimental: 24 6-week old B-hPD-1/hPD-L1 female mice (purchased from Biocytogen (Jiangsu) Gene Biotechnology Co., Ltd.) were taken and the test compound was dissolved in a solvent containing 5% DMSO, 60% PEG400 and 35% purified water. The compound I-6 and three control molecules, Example 17, Compound 14 (INCB086550) and Example 180 were dosed. The compound was administered by gavage in a single dose of 100 mg/kg and blood was collected through fundus vein plexus after administration. The time points for blood collection were 15 min, 30 min, 1 h, 2 h, 4 h, 8 h, 24 h, 32 h and 48 h. About 0.1 mL of blood was collected and centrifuged in a centrifuge tube (heparin sodium anticoagulation) at 5000 rpm for 5 min to separate plasma, and then frozen at −20° C. for testing. After the plasma sample was treated, the concentration of the compound in the plasma was determined by liquid chromatography-mass spectrometry (LC-MS/MS). The pharmacokinetic parameters were calculated using Phoenix WinNonlin 7.0 based on the average blood concentration data at different time points.

[2] = Repeated-dosing pharmacokinetics test; type: in vivo, B-hPD-1/hPD-L1 humanized female mice; settings: female, B-hPD-1/hPD-L1 (humanized), mouse, po; humanized mice, 50 mg/kg by gavage once a day for 12 days, plasma on day 12
Experimental: 24 6-week old B-hPD-1/hPD-L1 humanized female mice (purchased from Biocytogen (Jiangsu) Gene Biotechnology Co., Ltd.) were taken and the test compound was dissolved in a solvent containing 5% DMSO, 60% PEG400 and 35% purified water. The compound I-6 and three control molecules, Example 17, Compound 14 (INCB086550) and the aforementioned Example 180 were dosed. The compound was administered by gavage once a day in a dose of 50 mg/kg for 12 consecutive days, and blood was alternately collected through fundus vein plexus on day 12 of administration. The time points for blood collection were 15 min, 30 min, 1 h, 2 h, 4 h, 8 h, 24 h, 32 h and 48 h. About 0.1 mL of blood was collected and centrifuged in a centrifuge tube (heparin sodium for anticoagulation) at 5000 rpm for 5 min to separate plasma, and then frozen at −20° C. for testing. The concentration of the compound in the plasma was determined by liquid chromatography-mass spectrometry (LC-MS/MS). The pharmacokinetic parameters were calculated using Phoenix WinNonlin 7.0 based on the average blood concentration data at different time points.

[3] = system: PD-1/PD-L1 mediated inhibitory signal to T cell activation (CHO-PD-L1-CD3L cells and Jurkat-PD-1-NFAT cells); test: Blocking of PD-1/PD-L1 mediated inhibitory signal to T cell activation at cell level (NFAT luciferase reporter, co-culture); type: cell-based; settings: Homo sapiens, CHO-PD-L1-CD3L / Jurkat-PD-1-NFAT co-culture, 6 h
Experimental: In order to test the effect of interaction between PD-1 and PD-L1 on T cell activation signal in immune response, CHO-PD-L1-CD3L cells stably expressing human PD-L1 molecule and anti-CD3 single-chain antibody (ScFv) and Jurkat-PD-1-NFAT cells stably expressing human PD-1 molecule and NFAT reporter gene were constructed. When two kinds of cells are incubated together, anti-CD3 ScFv on the CHO cell surface and membrane CD3 molecule of Jurkat cell combine to transmit an activation signal into Jurkat cell. However, due to the binding of PD-L1 on the CHO cell surface and PD-1 molecule on the Jurkat cell surface at the same time, a signal for inhibiting activation is transmitted inward, so that luciferase reporter gene cannot be expressed. When an immunocheckpoint antibody or small-molecule inhibitor is added, the binding of PD-1 and PD-L1 is blocked, the NFAT pathway activated by CD3 ScFv antibody and CD3 cross-linking mediated T cell activation signal is no longer affected by the inhibitory signal, and the downstream luciferase reporter gene starts to be expressed. Chemiluminescence signals proportional to reporter gene activation can be detected by adding a catalytic substrate.
CHO-PD-L1-CD3L cells expressing human PD-L1 molecule and anti-CD3 single-chain antibody (ScFv) and Jurkat-PD-1-NFAT cells stably expressing human PD-1 molecule and NFAT reporter gene were all independently constructed and presented by Dr. Chen Bo (KeyMed Biosciences (Chengdu) Co., Ltd. Puromycin (Cat # 540411) and Hygromycin B (Cat # V900372) for stable culture of transfected cells were purchased from Sigma, PMA (Cat # P1585) was purchased from Sigma, and the anti human PD-L1 antibody (Cat # GMP-A066) was purchased from Novoprotein Company. The Luciferase substrate solution (Cat # E6485) and the luciferase-specific cell lysate 5×(Cat # E1531) were purchased from Promega company. The fluorescence detector Tecan (Spark 10M) was purchased from Tecan Company in Switzerland.
Main Process of Experiment • (1) On the day before the experiment, 100 μL of CHO-PD-L1-CD3L cells (about 4×10^4 cells/well) were inoculated at 37° C. overnight in a 96-well cell culture plate, and the culture medium was DMEM/F12 containing 10% FBS, 8 μg/mL Puromycin and 200 μg/mL Hygromycin B. • (2) The test compound was diluted with 0.1% PBST to obtain solutions with different concentration gradients, and then added into 96-well plates and incubated for 30 min in advance. The RPMI 1640 complete medium containing 10% FBS, 8 μg/mL Puromycin and 200 μg/mL Hygromycin B was used to adjust the Jurkat-PD-1-NFAT cell count to 2×10^5 cells/mL, and 100 ng/mL PMA (10 mg/mL storage solution prepared with DMSO) was added to amplify the T cell activation signal. 100 μL of the Jurkat-PD-1-NFAT cells were added into each well of the 96-well plates for co-culture. • (3) During the test reaction, control groups were set, including the solvent control without adding the test compound and the positive control with the addition of the […] in the experimental system. All tests were conducted by use of multiple holes. • (4) Incubation was continued at 37° C. for 6 h, 40 μL of 5×cell lysate was added directly, the solution was mixed well and placed at room temperature for 10 min to completely lyse cells. 50 μL of lysed cell solution was transferred to a fluorescence detection plate, 30 μL of luciferase substrate solution was then added, and the chemiluminescence detection program was immediately selected on the fluorescence detector for determination. • (5) Calculation formula of the inhibition rate of the test compound against T cell activation signal at the cell level: The inhibition rate against T cell activation signal (%)=(original chemiluminescence value of the test hole−solvent control)/(the highest original chemiluminescence value determined in the compound test hole−solvent control)×100%. […]

AUC(0-t) [1] [ng·h/mL] | MRT [1] [h] | half-life [1] [h] | AUC(0-t) [2] [ng·h/mL] | MRT [2] [h] | half-life [2] [h] | Structure (SMILES) | pEC50 [3]
45400 | 4.7 | 3.5 | 27800 | 4.2 | 3.3 | Cn1c(C(=O)Nc2cccc(-c3cccc(NC(=O)c4nc5c(n4C)CCN(CC46CCC(C(=O)O)(CC4)C6)C5)c3Cl)c2Cl)nc2c1CCN(CCO)C2 [Example 180] | 6.97
207000 | 10.9 | 9.3 | 151000 | 12 | 9.4 | COCC12CCC(CCN3CCc4c(nc(C(=O)Nc5cccc(-c6cccc(NC(=O)c7nc8c(n7C)CCN(CCC79CCC(C(=O)O)(CC7)C9)C8)c6Cl)c5Cl)n4C)C3)(CC1)C2 [Compound I-6, 4-(2-(2-((2,2′-dichloro-3′-(5-(2-(4-(methoxymethyl)bicyclo[2.2.1]heptan-1-yl)ethyl)-1-methyl-4,5,6,7-tetrahydro-1H-imidazo[4,5-c]pyridine-2-carboxamido)-[1, 1′-biphenyl]-3-yl)carbamoyl)-1-methyl-1,4,6,7-tetrahydro-5H-imidazo[4,5-c]pyridin-5-yl)ethyl)bicyclo[2.2.1]heptane-1-carboxylic acid] | 7.80
